We go through eight compounds from BindingDB's records for doi:10.1021/jm00065a013 (Washington University, 1993).

Molecules are shown by their SMILES. *1 amine or outer side, *2 acyl side, *3 side chain or, on linkers, in order; H or OH if unused. Where a SMILES comes first, the peptide text is derived from it. Bridges are numbered along the chain shown (N, C = ends). Roman numbers before positions name the chains, in order. [ ]: non-standard residue; d: D form. Pro(4R-SH) = O=C([C@@H]1C[C@@H](S[*:3])CN1[*:1])[*:2]; Pro(4S-SH) = O=C([C@@H]1C[C@H](S[*:3])CN1[*:1])[*:2]; hCys = N[C@@H](CCS)C(=O)O; Sar = CNCC(=O)O

The test deals with Type-2 angiotensin II receptor (Oryctolagus cuniculus). Briefly: In vitro binding affinity at angiotensin II (type 2) receptor in rabbit uterus.
Broadly, the IC50 is the point on the concentration scale where inhibition reaches its midpoint. The compound `CNCC(=O)N[C@@H](CCCNC(=N)N)C(=O)N[C@H]1CCSSCC[C@@H](C(=O)N[C@@H](Cc2cnc[nH]2)C(=O)N2CCC[C@H]2C(=O)N[C@@H](Cc2ccccc2)C(=O)O)NC(=O)[C@H](Cc2ccc(O)cc2)NC1=O` [2-({1-[2-{[11-[5-Guanidino-2-(2-methylamino-acetylamino)-pentanoylamino]-8-(4-hydroxy-benzyl)-7,10-dioxo-1,2-dithia-6,9-diaza-cyclotridecane-5-carbonyl]-amino}-3-(3H-imidazol-4-yl)-propionyl]-pyrrolidine-2-carbonyl}-amino)-3-phenyl-propionic acid] (H-[Sar]R[hCys]Y[hCys]HPF-OH; disulfide 3-5) displayed an IC50 of 80 nM. `CNCC(=O)N[C@@H](CCCNC(=N)N)C(=O)N1C[C@@H]2C[C@H]1C(=O)N[C@@H](Cc1ccc(O)cc1)C(=O)N[C@H](C(=O)N[C@@H](Cc1cnc[nH]1)C(=O)N1CCC[C@H]1C(=O)N[C@@H](Cc1ccccc1)C(=O)O)CSS[C@H]1C[C@@H](C(=O)N[C@@H](Cc3ccc(O)cc3)C(=O)N[C@H](C(=O)N[C@@H](Cc3cnc[nH]3)C(=O)N3CCC[C@H]3C(=O)N[C@@H](Cc3ccccc3)C(=O)O)CSS2)N(C(=O)[C@H](CCCNC(=N)N)NC(=O)CNC)C1` [bis c[Sar1-Arg2-MPc3-Tyr4-Cys5-His6-Pro7-Phe8]antiparallel] (I: H-[Sar]R[Pro(4S-SH)]YCHPF-OH / II: H-[Sar]R[Pro(4S-SH)]YCHPF-OH; disulfide I:3-II:5, I:5-II:3) showed an IC50 of 25 nM. `CNCC(=O)N[C@@H](CCCNC(=N)N)C(=O)N1C[C@@H]2C[C@H]1C(=O)N[C@@H](Cc1ccc(O)cc1)C(=O)N[C@H](C(=O)N[C@@H](Cc1cnc[nH]1)C(=O)N1CCC[C@H]1C(=O)N[C@@H](Cc1ccccc1)C(=O)O)CSSC[C@H](C(=O)N[C@H](Cc1cnc[nH]1)C(=O)N1CCC[C@@H]1C(=O)N[C@H](Cc1ccccc1)C(=O)O)NC(=O)[C@@H](Cc1ccc(O)cc1)NC(=O)[C@H]1C[C@H](CN1C(=O)[C@@H](CCCNC(=N)N)NC(=O)CNC)SS2` [bis c[Sar1-Arg2-MPc3-Tyr4-Cys5-His6-Pro7-Phe8]parallel] yielded a half-inhibitory concentration (IC50) of 23 nM. Next, `CNCC(=O)N[C@@H](CCCN=C(N)N)C(=O)N[C@H]1CSSC[C@@H](C(=O)N[C@@H](Cc2c[nH]cn2)C(=O)N2CCC[C@H]2C(=O)N[C@@H](Cc2ccccc2)C(=O)O)NC(=O)[C@H](Cc2ccc(O)cc2)NC(=O)[C@@H](NC(=O)[C@H](CCCN=C(N)N)NC(=O)CNC)CSSC[C@@H](C(=O)N[C@@H](Cc2c[nH]cn2)C(=O)N2CCC[C@H]2C(=O)N[C@@H](Cc2ccccc2)C(=O)O)NC(=O)[C@H](Cc2ccc(O)cc2)NC1=O` [bis-c[Sar1-Arg2-Cys3-Tyr4-Cys5-His6-Pro7-Phe8](antiparallel)] (I: H-[Sar]RCYCHPF-OH / II: H-[Sar]RCYCHPF-OH; disulfide I:3-II:5, I:5-II:3): 65 nM. `CNCC(=O)N[C@@H](CCCN=C(N)N)C(=O)N[C@H]1CC(=O)NCCCC[C@@H](C(=O)N[C@@H](Cc2c[nH]cn2)C(=O)N2CCC[C@H]2C(=O)N[C@@H](Cc2ccccc2)C(=O)O)NC(=O)[C@H](Cc2ccc(O)cc2)NC1=O` [c[Sar1-Arg2-Asp3-Tyr4-Lys5-His6-Pro7-Phe8]] (H-[Sar]RDYKHPF-OH; lactam 3-5) had an IC50 of 86 nM. Next, `CNCC(=O)N[C@@H](CCCNC(=N)N)C(=O)N[C@H]1CSS[C@@H]2C[C@@H](C(=O)N[C@@H](Cc3cnc[nH]3)C(=O)N3CCC[C@H]3C(=O)N[C@@H](Cc3ccccc3)C(=O)O)N(C2)C(=O)[C@H](Cc2ccc(O)cc2)NC1=O` [c[Sar1-Arg2-Cys3-Tyr4-MPt5-His6-Pro7-Phe8]] (H-[Sar]RCY[Pro(4R-SH)]HPF-OH; disulfide 3-5): 0.82 nM. `CNCC(=O)N[C@@H](CCCNC(=N)N)C(=O)N[C@H]1CCSS[C@H]2C[C@@H](C(=O)N[C@@H](Cc3cnc[nH]3)C(=O)N3CCC[C@H]3C(=O)N[C@@H](Cc3ccccc3)C(=O)O)N(C2)C(=O)[C@H](Cc2ccc(O)cc2)NC1=O` [c[Sar1-Arg2-Hcy3-Tyr4-MPc5-His6-Pro7-Phe8]] (H-[Sar]R[hCys]Y[Pro(4S-SH)]HPF-OH; disulfide 3-5) had a 50% inhibitory concentration (IC50) of 9.1 nM. `CNCC(=O)N[C@@H](CCCNC(=N)N)C(=O)N1C[C@@H]2C[C@H]1C(=O)N[C@@H](Cc1ccc(O)cc1)C(=O)N[C@H](C(=O)N[C@@H](Cc1cnc[nH]1)C(=O)N1CCC[C@H]1C(=O)N[C@@H](Cc1ccccc1)C(=O)O)CSS2` [c[Sar1-Arg2-MPc3-Tyr4-Cys5-His6-Pro7-Phe8]] (H-[Sar]R[Pro(4S-SH)]YCHPF-OH; disulfide 3-5) displayed a 50% inhibitory concentration (IC50) of 12 nM.
